From US20150031674A1, “SERINE/THREONINE KINASE INHIBITORS” (GENENTECH, INC., priority 2013, published 2015) come the findings set out here.

The structures appear in SMILES notation.

For the experiment, the target named is human recombinant PAK1-KD protein (Homo sapiens, UniProt Q13153). Kind of experiment: PAK1-KD (Kinase Domain) IC50 Zlyte Assay (FRET peptide substrate phosphorylation). To be noted: Z'-LYTE, Biological Example 1.
Sequence of human recombinant PAK1-KD protein (Q13153 270-521 limits assumed): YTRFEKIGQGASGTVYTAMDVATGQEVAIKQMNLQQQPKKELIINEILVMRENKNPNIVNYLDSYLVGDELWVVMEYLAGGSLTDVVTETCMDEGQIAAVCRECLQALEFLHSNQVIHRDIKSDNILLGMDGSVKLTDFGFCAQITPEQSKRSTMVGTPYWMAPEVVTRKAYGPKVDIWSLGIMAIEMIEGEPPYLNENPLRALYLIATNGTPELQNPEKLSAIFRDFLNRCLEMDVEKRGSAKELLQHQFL
On to `CNc1ncc2cc(-c3ccc(-c4cncc(C)n4)cc3Cl)c(=O)n(C[C@H]3OC[C@H](N)CO3)c2n1` [Example I-145, 8-[(5-Amino-1,3-dioxan-2-yl)methyl]-6-[2-chloro-4-(6-methylpyrazin-2-yl)phenyl]-2-(methylamino)pyrido[2,3-d]pyrimidin-7-one], for which the Ki stood at 8.54 nM.
Next, `Cc1cncc(-c2ccc(-c3cc4cnc(NC5COC5)nc4n(C[C@H]4CNCCO4)c3=O)c(Cl)c2)n1` [Example I-146, 6-[2-Chloro-4-(6-methylpyrazin-2-yl)phenyl]-8-[[(2R)-morpholin-2-yl]methyl]-2-(oxetan-3-ylamino)pyrido[2,3-d]pyrimidin-7-one]: 10.7 nM; `CNc1ncc2cc(-c3ccc(-c4cccc(C)n4)cc3C)c(=O)n(C[C@H]3CNCCO3)c2n1` [Example I-148, 2-(Methylamino)-6-[2-methyl-4-(6-methyl-2-pyridyl)phenyl]-8-[[(2R)-morpholin-2-yl]methyl]pyrido[2,3-d]pyrimidin-7-one]: 7.3 nM; `Cc1cncc(-c2ccc(-c3cc4cnc(NC5COC5)nc4n(C[C@@H]4CNCCO4)c3=O)c(Cl)c2)n1` [Example I-149, 6-[2-Chloro-4-(6-methylpyrazin-2-yl)phenyl]-8-[[(2S)-morpholin-2-yl]methyl]-2-(oxetan-3-ylamino)pyrido[2,3-d]pyrimidin-7-one]: 9 nM.
Next, `CNc1ncc2cc(-c3ccc(-c4cncc(C)n4)cc3Cl)c(=O)n(CC(=O)N[C@@H]3CCNC3)c2n1` [Example I-151, 2-[6-[2-Chloro-4-(6-methylpyrazin-2-yl)phenyl]-2-(methylamino)-7-oxo-pyrido[2,3-d]pyrimidin-8-yl]-N-[(3R)-pyrrolidin-3-yl]acetamide]: 12.4 nM; `CNc1ncc2cc(-c3ccc(-c4cncc(C)n4)cc3Cl)c(=O)n(CC(=O)N3CC[C@@H](N)C3)c2n1` [Example I-152, 8-[2-[(3R)-3-Aminopyrrolidin-1-yl]-2-oxo-ethyl]-6-[2-chloro-4-(6-methylpyrazin-2-yl)phenyl]-2-(methylamino)pyrido[2,3-d]pyrimidin-7-one]: 21.1 nM; `CNc1ncc2cc(-c3ccc(-c4cncc(C)n4)cc3Cl)c(=O)n(CC(=O)N3CCC[C@@H]3CN)c2n1` [Example I-153, 8-[2-[(2R)-2-(Aminomethyl)pyrrolidin-1-yl]-2-oxo-ethyl]-6-[2-chloro-4-(6-methylpyrazin-2-yl)phenyl]-2-(methylamino)pyrido[2,3-d]pyrimidin-7-one]: 8.5 nM.
Next, `CNc1ncc2cc(-c3ccc(-c4cncc(C)n4)cc3Cl)c(=O)n(CC(=O)N3CCC[C@H]3CN)c2n1` [Example I-154, 8-[2-[(2S)-2-(Aminomethyl)pyrrolidin-1-yl]-2-oxo-ethyl]-6-[2-chloro-4-(6-methylpyrazin-2-yl)phenyl]-2-(methylamino)pyrido[2,3-d]pyrimidin-7-one]: 39.4 nM.
With `CNc1ncc2cc(-c3ccc(-c4cncc(C)n4)cc3Cl)c(=O)n(CC(=O)N3C[C@@H]4C[C@H]3CN4)c2n1` [Example I-155, 6-[2-Chloro-4-(6-methylpyrazin-2-yl)phenyl]-8-[2-[(1S,4S)-2 5-diazabicyclo[2.2.1]heptan-2-yl]-2-oxo-ethyl]-2-(methylamino)pyrido[2,3-d]pyrimidin-7-one], the inhibition constant (Ki) is 39.2 nM.
Under `CNc1ncc2cc(-c3ccc(-c4cncc(C)n4)cc3Cl)c(=O)n(CC(=O)NCCN)c2n1` [Example I-156, N-(2-aminoethyl)-2-[6-[2-chloro-4-(6-methylpyrazin-2-yl)phenyl]-2-(methylamino)-7-oxo-pyrido[2,3-d]pyrimidin-8-yl]acetamide] stands 14.4 nM; under `CNc1ncc2cc(-c3ccc(-c4cncc(C)n4)cc3Cl)c(=O)n(CC(=O)N3CCC(O)C3)c2n1` (centres unmarked) [Example I-157, 6-[2-chloro-4-(6-methylpyrazin-2-yl)phenyl]-8-[2-(3-hydroxypyrrolidin-1-yl)-2-oxo-ethyl]-2-(methylamino)pyrido[2,3-d]pyrimidin-7-one], 44.9 nM.
